ChEMBL document CHEMBL4673393, “Synthesis and Metabolism of BTN3A1 Ligands: Studies on Modifications of the Allylic Alcohol” (ACS Med Chem Lett, 2021)
Active and inactive are the calls of the source. The rule behind the calls is not given here.

Legend:
[1] = Prodrug conversion in human K562 cells assessed as conversion of monoacid in allylic aldehyde form at 100 uM measured after 1 hr by LC-MS analysis; format: ADME, cell-based; conditions: k562, 1 h
[2] = target: Butyrophilin subfamily 3 member A1 (Homo sapiens) (UniProt O00481); assay: Binding affinity to BTN3A1 in human PBMC-derived Vgamma9/Vdelta2 T cells assessed as induction of Vgamma9Vdelta2 T cells proliferation incubated for 3 days by gamma delta TCR/PE-CD3+ antibody staining based FACS analysis relative to HMBP analog; conditions: Vgamma9Vdelta2 T cell, time 3.0 day
[3] = Prodrug conversion in human K562 cells assessed as conversion of phosphonic monoacid in allylic aldehyde form at 100 uM measured after 1 hr by LC-MS analysis; format: ADME, cell-based; conditions: k562, 1 h
[4] = Prodrug conversion in human K562 cells assessed as conversion of monoacid in allylic alcohol form at 100 uM measured after 1 hr by LC-MS analysis; format: ADME, cell-based; conditions: k562, 1 h
[5] = Prodrug conversion in human K562 cells assessed as conversion of phosphonic monoacid in allylic alcohol form at 100 uM measured after 1 hr by LC-MS analysis; format: ADME, cell-based; conditions: k562, 1 h
[6] = tested on: K562; assay: Toxicity in human K562 cells assessed as reduction in cell viability at 100 uM after 72 hrs by Qb reagent based fluorescence assay; conditions: k562, 72 h
[7] = target: Butyrophilin subfamily 3 member A1 (Homo sapiens) (UniProt O00481); assay: Binding affinity to BTN3A1 in human K562 cells assessed as induction of Vgamma9/Vdelta2 T cell-mediated interferon gamma release preincubated for 4 hrs followed by compound washout and subsequent Vgamma9Vdelta2 T cell addition measured after 20 hrs by ELISA; format: cell-based
[8] = Prodrug conversion in human K562 cells assessed as dehydration by measuring DMAP monoacid formation at 100 uM measured after 1 hr by LC-MS analysis; format: ADME, cell-based; conditions: k562, 1 h
[9] = Prodrug conversion in human K562 cells assessed as conversion of free acid alcohol at 100 uM measured after 1 hr by LC-MS analysis; format: ADME, cell-based; conditions: k562, 1 h
[10] = Prodrug conversion in human K562 cells assessed as glutathione conjugation at 100 uM measured after 1 hr by LC-MS analysis; format: ADME, cell-based; conditions: k562, 1 h

Sequence of Butyrophilin subfamily 3 member A1 (Homo sapiens) (O00481 30-513 limits assumed): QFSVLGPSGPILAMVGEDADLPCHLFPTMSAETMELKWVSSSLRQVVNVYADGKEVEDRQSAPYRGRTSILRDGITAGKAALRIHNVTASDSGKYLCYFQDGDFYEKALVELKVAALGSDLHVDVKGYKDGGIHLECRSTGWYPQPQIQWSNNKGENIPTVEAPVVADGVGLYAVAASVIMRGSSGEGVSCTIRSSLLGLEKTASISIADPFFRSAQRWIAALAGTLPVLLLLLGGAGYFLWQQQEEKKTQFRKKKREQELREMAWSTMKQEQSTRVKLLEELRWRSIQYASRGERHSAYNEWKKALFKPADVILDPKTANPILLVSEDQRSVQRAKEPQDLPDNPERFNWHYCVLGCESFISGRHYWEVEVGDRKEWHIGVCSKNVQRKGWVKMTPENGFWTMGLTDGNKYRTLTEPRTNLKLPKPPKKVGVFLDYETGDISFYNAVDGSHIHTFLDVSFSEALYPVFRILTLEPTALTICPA

Row | Compound | Drug metabolism [1] | fold change (FC) [2] | Drug metabolism [3] | Activity [6] | further results
1 | CCOC(=O)CNP(=O)(CC/C=C(\C)C=O)Oc1ccccc1 (stereo unspecified) | Metabolite_Detected | 56 | – | – | –
2 | C/C(=C\CCP(=O)(OCOC(=O)C(C)(C)C)OCOC(=O)C(C)(C)C)CO | Metabolite_Notdetected | – | Metabolite_Notdetected | – | Drug metabolism [4]: Metabolite_Detected; Drug metabolism [5]: Metabolite_Detected
3 | C/C(C=O)=C\CCP(=O)(NCC(=O)OC(C)C)Oc1ccccc1 (stereo unspecified) | – | 45 | – | – | –
4 | COC(=O)CNP(=O)(CC/C=C(\C)C=O)Oc1ccccc1 (stereo unspecified) | – | 31 | – | Toxic | –
5 | CCOC(=O)CNP(=O)(CC/C=C(C)/C=N/O)Oc1ccccc1 (stereo unspecified) | Metabolite_Detected | > 2100 | – | – | –
6 | C/C(C=O)=C\CCP(=O)(OCOC(=O)C(C)(C)C)Oc1ccc2ccc(=O)oc2c1 (stereo unspecified) | – | 2 | – | – | Activity [7]: Active
7 | C/C(C=O)=C\CCP(=O)(OCOC(=O)C(C)(C)C)OCOC(=O)C(C)(C)C | Metabolite_Detected | 9 | Metabolite_Detected | Toxic | Drug metabolism [8]: Metabolite_Detected; Drug metabolism [9]: Metabolite_Detected; Drug metabolism [10]: Metabolite_Detected
8 | C/C(C=O)=C\CCP(=O)(OCOC(=O)C(C)(C)C)Oc1ccc2ccccc2c1 (stereo unspecified) | Metabolite_Detected | 2 | Metabolite_Detected | Toxic | Drug metabolism [9]: Metabolite_Detected; Activity [7]: Active
